The source of these data is patent US20240197702A1, “ANTISEPTIC-ANTIBIOTIC GUMBOS EFFECTIVE AGAINST GRAM-NEGATIVE PATHOGENS” (priority 2020, published 2024).

Series [1] has as its system Carbapenem-resistant clinical isolate of Klebsiella pneumoniae. As to the kind of experiment: MIC by micro-broth dilution against carbapenem-resistant K. pneumoniae. Particulars: CRE K. pneumoniae, MH broth. It is filed as cell-based. As for the experimental part: (§1) Minimum Inhibitory Concentrations of GUMBOS against N. gonorrhoeae: Clinical isolates of N. gonorrhoeae and N. gonorrhoeae ATCC 49226 were obtained from Louisiana State University Health Sciences Center New Orleans HIV Outpatient Clinic. Minimum inhibitory concentrations (MICs) of GUMBOS, constituent parent drugs, azithromycin, and unreacted mixtures were determined using micro-broth dilution in 96-well plates. Stock solutions of 1 mM were prepared in deionized water (1% DMSO). Stock solutions were diluted to a known working concentration and 100 μL were added to the first row of the plate. For susceptibility testing of N. gonorrhoeae, media was prepared according to methods reported by Wade and Graver (Fed. Euro. Microbiol. Soc. Microbiol. Letts (2007), 273 (1), 35-37). This liquid medium allowed dense growth of N. gonorrhoeae for use in broth dilution tests. Protein-free liquid media (100 μL) were added to each well and two-fold dilutions were performed. The antibiotic containing wells were inoculated with an equal volume of bacterial inoculum matching a 0.5 McFarland standard. Microtiter plates were incubated for 20-24 hours at 37° C. with 5% CO2 and examined for visible signs of bacterial growth as evidenced by turbidity. The lowest concentration of antibiotic that prevents growth is the MIC.
(§2) Minimum Inhibitory Concentrations of GUMBOS against Carbapenem-resistant Enterobacteriaceae: GUMBOS, ceftriaxone, and azithromycin were tested against extended spectrum beta-lactamase (ESBL)-producing gram negative bacteria. Carbapenem-resistant clinical isolates of Escherichia coli, Enterobacter cloacae, and Klebsiella pneumoniae were obtained from Louisiana State University (LSU) Health Sciences Center New Orleans HIV Outpatient Clinic. Minimum inhibitory concentrations were determined as described above using micro-broth dilutions with two minor adjustments, cation-adjusted Mueller Hinton (MH) broth was used instead and stock solutions of test compounds were prepared directly in MH broth.
On the technique in general: In broth dilution the organism is exposed to a series of concentrations in liquid medium.

The test system of another series is HeLa cells. The experiment in a line: MTT cytotoxicity assay of ceftriaxone-based GUMBOS. Particulars: for IC50: read-out: Acute cytotoxicity (IC50); for Relative cell toxicity (in words): comparison with mixture or parent antiseptic. Format: cell-based. As for the experimental part: Cytotoxicity Assay of GUMBOS: Cytotoxicity of GUMBOS, unreacted mixtures, and antiseptics towards healthy cells were evaluated using the MTT assay, a colorimetric dye assay, according to manufacturer's instructions. […] Stock solutions of antimicrobial agents in cell medium (1% MeOH) were diluted to a known working concentration, doubly diluted, and transferred to seeded cells. […] Cells treated with only DMEM were used as a negative control. After incubation, 15 μL of MTT were added to each well and cells were further incubated for an hour. Sodium dodecyl sulfate dimethylformamide solution was added after this additional incubation time in order to dissolve the purple formazan crystals. Cell viability was quantified at 570 nm using a microplate spectrophotometer (Eppendorf PlateReader AF2200, Hauppauge, NY). Cell viability as a percentage was determined as the ratio between treated cells and untreated (control) cells taken as 100%.
On the technique in general: Tetrazolium assays rely on reduction of a dye to a coloured formazan, in cell work by metabolically active cells.

The subject of series [2] is N. gonorrhoeae ATCC 49226. As to the kind of experiment: MIC by micro-broth dilution against N. gonorrhoeae ATCC 49226. Format: cell-based, Neisseria gonorrhoeae. The conditions noted are these: for MIC: ATCC 49226, micro-broth dilution, 20-24 hours. As for the experimental part: as §1, with “Stock solutions of 1 mM were prepared in deionized water (1% DMSO).” left out, “[…].” for “Graver (Fed.”, “Letts (2007), 273 (1), 35-37).” left out, “Microtiter plates were incubated for 20-24 hours at 37° C. with 5% CO2 and examined for visible signs of bacterial growth as evidenced by turbidity.” left out

Series [3] relates to Carbapenem-resistant clinical isolate of Enterobacter cloacae. The experiment in a line: MIC by micro-broth dilution against carbapenem-resistant E. cloacae. The conditions noted are these: CRE E. cloacae, MH broth. It is filed as cell-based. Here is the method:
as §1, §2

Series [4] deals with clinical isolates of N. gonorrhoeae. The experiment in a line: MIC by micro-broth dilution against N. gonorrhoeae clinical isolates. The conditions noted are these: for MIC: four clinical isolates, micro-broth dilution, 20-24 hours. Format: cell-based, Neisseria gonorrhoeae. As for the experimental part:
as §1, with “Stock solutions of 1 mM were prepared in deionized water (1% DMSO).” left out, “[…].” for “Graver (Fed.”, “Letts (2007), 273 (1), 35-37).” left out, “Microtiter plates were incubated for 20-24 hours at 37° C. with 5% CO2 and examined for visible signs of bacterial growth as evidenced by turbidity.” left out

Series [5] has as its system Carbapenem-resistant clinical isolates of Escherichia coli. As to the kind of experiment: MIC by micro-broth dilution against carbapenem-resistant E. coli. It is filed as cell-based. The conditions noted are these: MH broth. Here is the method: as §1, §2
Series [6] can be described thus: Octanol-water partition coefficient (Log P), shake-flask method.
Description: Octanol-Water Partition Coefficient: To determine the relative lipophilic strength of GUMBOS, the logarithmic octanol-water partition coefficient (Log P) was measured. It is a ratiometric parameter based on the concentration of therapeutic agent in either phase of the two-phase system (octanol and water) when at equilibrium (Equation 1). Specifically, a shake-flask method was used. To prevent minimal solvent miscibility, an equal amount of water and 1-octanol were mixed together for 24 hours and subsequently allowed to separate. The octanol layer was used to generate a calibration curve from the absorbance of the compound at various concentrations. An equal volume of saturated water was added to a flask of known concentration (Ci) chosen from the calibration curve. This mixture was stirred for a minimum of two hours and left undisturbed to allow the two solvent layers to separate. The absorbance of the therapeutic salt in the octanol layer was determined (Co). Thus, the concentration of therapeutic agent in water was determined using Ci−Co=Cw.
However, octanol-water partition coefficients were measured for GUMBOS using the shake flask method to further explore the lipophilic properties of these compounds.
The subject of series [7] is N. gonorrhoeae clinical isolates. The experiment in a line: Kirby-Bauer disc diffusion against N. gonorrhoeae clinical isolates. It is filed as cell-based, Neisseria gonorrhoeae. The conditions noted are these: three clinical isolates, 20-24 h. Here is the method:
(§3) Antimicrobial susceptibility testing: Kirby-Bauer disc diffusion susceptibility tests were used to determine zones of inhibition (ZOIs) for N. gonorrhoeae (ATCC 49226) and three clinical isolates obtained from Louisiana State University Health Sciences Center New Orleans HIV Outpatient Clinic. Kirby-Bauer disc diffusion is one of the CDC's preferred methods of testing the susceptibility of N. gonorrhoeae. Testing was performed according to CLSI recommended procedures. In this susceptibility test, 6 mm diameter blank paper discs were impregnated with known quantities of antimicrobial drug followed by evaporation of solvent; however, ceftriaxone, azithromycin and doxycycline antimicrobial susceptibility discs were purchased from Thermo Fisher Scientific. Impregnated discs were placed onto prepared nutrient agar plates that were inoculated with N. gonorrhoeae to give a confluent lawn of growth. Suspensions of these various strains were prepared in accordance with a 1.0 McFarland standard. Inoculated agar plates were incubated for 20-24 h at 37° C. in a 5% CO2 atmosphere.
(§4) Blank discs were loaded with 50 nmol of GUMBOS, respective constituent compounds and equivalent stoichiometric unreacted mixtures of octenidine and carbenicillin that are equimolar to the purchased ceftriaxone discs (Oxoid™, Thermo Fisher). After 20-24 h incubation, diameters of ZOIs were measured using a ruler. […] Antibacterial activity was improved for octenidine when chloride ions were exchanged for the antibiotic. […] This effect was not seen, however, for an unreacted mixture of the two drugs for either N. gonorrhoeae (ATCC 49226) or clinical isolates. The ZOIs of octenidine/carbenicillin were also larger than or equal to azithromycin and doxycycline ZOIs for N. gonorrhoeae (ATCC 49226). […] This is significant as resistance rates for azithromycin have increased worldwide. Among 57 countries reporting on azithromycin susceptibility, 28 (49%) reported>5% resistance. […] Ceftriaxone produced large ZOIs as the clinical population still remains susceptible to it in the USA (only 0.2% of isolates had elevated resistance to ceftriaxone in 2017).
(In general: Agar diffusion results depend on both activity and mobility in agar.)

In series [8] the test system is N. gonorrhoeae ATCC 49226. As to the kind of experiment: Kirby-Bauer disc diffusion against N. gonorrhoeae ATCC 49226. It is filed as cell-based, Neisseria gonorrhoeae. The conditions noted are these: for Zone size, mm (±SD): ATCC 49226, disc diffusion, 20-24 h; for Zone sizes against CLSI susceptibility range: N. gonorrhoeae (ATCC 49226) and three clinical isolates. As for the experimental part: as §3, §4

≈ marks a conversion by molar mass, not a printed value. Read-outs that look alike come from different tables or passages of the source.

As for `CON=C(C(=O)NC1C(=O)N2C(C(=O)O)=C(CSc3nc(=O)c(O)nn3C)CSC12)c1csc(N)n1.N=C(NCCCCCCNC(=N)NC(=N)Nc1ccc(Cl)cc1)NC(=N)Nc1ccc(Cl)cc1` (centres unmarked) [[CHX][CRO], chlorhexidine-ceftriaxone], the MIC in series [1] was found to be 50 µM; in series [2], 0.08 µM; in series [3], 50 µM; in series [4], 0.06 ± 0.02 µM; in [5] (CRE E. Coli (Isolate 2)), 12.5 µM; in series [5] (CRE E. coli (Isolate 1)), 25 µM. The IC50 stood at 84.3 ± 5.87 µM in the series with HeLa cells (15 min) and 45.5 ± 1.42 µM in the series with HeLa cells (60 min). Besides, the “Relative cell toxicity (in words)” value in the series with HeLa cells is reported as “only slightly less toxic”; in the series on HeLa cells (listed as Chlorhexidine-ceftriaxone), “significantly less toxic than its unreacted, stoichiometric mixture”. Moreover, the lipophilicity (Log P) in series [6] was 0.2 (±0.1).
With `CC(=O)O.CC(=O)O.NC(=N\CCCCCC/N=C(N)/N=C(\N)Nc1ccc(Cl)cc1)/N=C(\N)Nc1ccc(Cl)cc1` [Chlorhexidine diacetate, chlorhexidine diacetate], the half-inhibitory concentration (IC50) with HeLa cells (15 min) was determined as 80.8 ± 4.27 µM; in the series with HeLa cells (60 min), 24.6 ± 0.66 µM. The minimal inhibitory concentration (MIC) in series [2] was 3.1 µM; in series [4], 4.7 ± 1.8 µM.
`CCCCCCCCNc1cc[n+](CCCCCCCCCC[n+]2ccc(NCCCCCCCC)cc2)cc1.CON=C(C(=O)NC1C(=O)N2C(C(=O)[O-])=C(CSc3nc(=O)c([O-])nn3C)CSC12)c1csc(N)n1` [[OCT][CRO], octenidine-ceftriaxone]: the MIC was 25 µM in series [1]; 0.08 µM in series [2]; 25 µM in [3]; 0.09 ± 0.07 µM in series [4]; 25 µM in series [5] (CRE E. Coli (Isolate 2)); 50 µM in [5] (CRE E. coli (Isolate 1)). Besides, the IC50 came out at 66.5 ± 8.24 µM in the series with HeLa cells (15 min) and 43.3 ± 5.98 µM in the series with HeLa cells (60 min). Moreover, the “Relative cell toxicity (in words)” value is recorded as “significantly less toxic than octenidine dihydrochloride” in the series on HeLa cells and “indifferent toxicity to its unreacted, stoichiometric mixture of parent compounds” in the series with HeLa cells (listed as octenidine-ceftriaxone). In addition, the lipophilicity (Log P) in [6] is 0.3 (±0.2).
For the compound `C[C@H]1c2cccc(O)c2C(=O)C2=C(O)[C@]3(O)C(=O)C(C(N)=O)=C(O)[C@@H](N(C)C)[C@@H]3[C@@H](O)[C@@H]21` [Doxycycline, doxycycline], the “Zone size, mm (±SD)” value in [7] is 28 ± 7 mm; in series [8], 35 ± 0.6 mm.
For the compound `CO/N=C(\C(=O)N[C@@H]1C(=O)N2C(C(=O)[O-])=C(CSc3nc(=O)c([O-])nn3C)CS[C@H]12)c1csc(N)n1.[Na+].[Na+]` [Ceftriaxone, Ceftriaxone disodium salt], the MIC in [1] was over 500 µM; in series [2], 0.04 µM; in series [3], over 500 µM; in [4] (read-out: MIC), 0.02 µM; in [5] (CRE E. Coli (Isolate 2)) it was over 500 µM; in [5] (CRE E. coli (Isolate 1)) it was over 500 µM. Moreover, the “Concentration as compared to GUMBOS” value in [2] (N. gonorrhoeae ATCC 49226) is listed as “half-fold decrease”. The entries for the “Zone size, mm (±SD)” value in series [7] and in series [8] were 49 ± 4 mm and 51 ± 1 mm, respectively. For the same compound, the “Zone sizes against CLSI susceptibility range” value in [8] was “within the susceptibility range set by CLSI”.
Take `CC1(C)S[C@@H]2[C@H](NC(=O)C(C(=O)[O-])c3ccccc3)C(=O)N2[C@H]1C(=O)[O-].[Na+].[Na+]` (some centres unmarked) [Na2 CAR, disodium carbenicillin]: the “Zone size, mm (±SD)” value in series [7] was 28 ± 3 mm; in series [8] it was 27 ± 3 mm.
With `CC[C@H]1OC(=O)[C@H](C)[C@@H](O[C@H]2C[C@@](C)(OC)[C@@H](O)[C@H](C)O2)[C@H](C)[C@@H](O[C@@H]2O[C@H](C)C[C@H](N(C)C)[C@H]2O)[C@](C)(O)C[C@@H](C)CN(C)[C@H](C)[C@@H](O)[C@]1(C)O` [Azithromycin, azithromycin], the minimum inhibitory concentration (MIC) is 250 µM (≈ 187 µg/mL) in series [1] (Klebsiella pneumoniae); 0.8 µM (≈ 0.599 µg/mL) in series [2] (Neisseria gonorrhoeae, ATCC49226); 250 µM (≈ 187 µg/mL) in series [3] (Enterobacter cloacae); 0.6 ± 0.2 µM (≈ 0.449 µg/mL) in [4] (Neisseria gonorrhoeae, read-out: MIC); 250 µM (≈ 187 µg/mL) in series [5] (Escherichia coli, CRE E. Coli (Isolate 2)); over 500 µM in series [5] (Escherichia coli, CRE E. coli (Isolate 1)). Besides, the “Concentration required for growth inhibition, fold greater than GUMBOS” value in [4] (N. gonorrhoeae clinical isolates) was “six to nine”. The entries for the “Zone size, mm (±SD)” value in series [7] and in series [8] were 36 ± 4 mm and 40 ± 1 mm, respectively. Besides, in series [8], the “Zone sizes against CLSI susceptibility range” value is given as “within the susceptibility range set by CLSI”.

By MIC is commonly meant the lowest concentration found to suppress growth. What is called IC50 is the midpoint of a concentration-inhibition curve. The Log P is a log measure of how a compound divides between an organic and an aqueous phase. Higher therefore signals a more lipophilic compound.
